{
  "source": "patent US5747493A",
  "about": "“Dopamine re-uptake inhibitor” (Pola Chemical Industries, Inc., priority 1993, dated 1998)",
  "key": {"[^3 H]-DA re-uptake": {"tested_on": "[^3 H]-DA re-uptake", "test": "inhibition of [^3 H]-DA re-uptake in corpus striatum homogenate", "format": "biochemical, Sprague-Dawley rats", "conditions": "for amount of DA re-uptake: 2 min", "protocol": "Investigation as to inhibition of [^3 H]-DA re-uptake\nCorpus striatum samples of Sprague-Dawley rats (SD rats) were used to investigate the inhibition of [^3 H]-DA re-uptake.\nMore specifically, after an SD rat (aged 8 weeks, male) was decapitated, its corpus striatum was taken out while keeping on ice. A Krebs-Henseleit buffer in an amount ten times of the corpus striatum was added thereto to homogenize the resultant mixture by means of a Teflon homogenizer, thereby obtaining a homogenate. To this homogenate, were added nialamide as a monoamine oxidase inhibitor, ascorbic acid as an antioxidant and a test agent to preincubate the resulting mixture at 37° C. for 5 minutes. […] After the reaction mixture was filtered by means of a cell harvester in which a filter had been set, the filter was washed twice with physiological saline. The washed filter was placed in a vial, and 10 ml of Aquazol-2 were added to leave the filter to stand overnight. Thereafter, the radioactivity of the sample was measured by a liquid scintillation counter.\nCompound 1 according to the present invention was used as a test agent. The test agent was prepared into a 10^-2 M solution in dimethyl sulfoxide, and the solution was diluted with a Krebs-Henseleit buffer before its use. With the concentrations of the test substances, 11 points were selected within a range of from 10^-10 M to 10^-5 M to plot the concentration versus the amount of DA re-uptake. From this plot, an IC50 value was determined."}, "Wistar rats (male)": {"tested_on": "Wistar rats (male)", "test": "quantity of spontaneous movement", "format": "in vivo", "conditions": "intraperitoneal, 3 hours; for Number of times of rising: control 2; for Number of times of traversing: control 20", "from_the_text": "Determination of quantity of spontaneous movement\nWistar rats (male) aged 7 weeks were used to confirm the effect of Compound 1 on spontaneous movement. […] The number of times of traversing sections of a floor and the number of times of rising were used as indices of the quantity of movement. The test agent was used in doses of from 0.1 mmol/kg down to 0.01 mmol/kg. Besides, physiological saline alone was used as a control."}},
  "note": "Where a name gives a salt, the structure may show the parent alone.",
  "data": [
    {"molecule": "OC(CNc1ccccc1)CN1CCN(CCCC(c2ccc(F)cc2)c2ccc(F)cc2)CC1", "note": "(stereo not drawn) [Compound 1, 1-[4,4-Bis(4-fluorophenyl)-butyl]-4-(2-hydroxy-3-phenyl-aminopropyl)piperazinedihydrochloride]", "values": [
      {"measurement": "IC50", "setting": "[^3 H]-DA re-uptake; SD rat corpus striatum homogenate, 37° C., 2 minutes reaction", "value": 6.79, "unit": "nM"},
      {"measurement": "amount of DA re-uptake", "setting": "[^3 H]-DA re-uptake; concentration of test substance -log (mol) 6, 1 µM", "value": 0, "unit": "%"},
      {"measurement": "amount of DA re-uptake", "setting": "[^3 H]-DA re-uptake; concentration of test substance -log (mol) 6.5, 0.316 µM", "value": 0, "unit": "%"},
      {"measurement": "amount of DA re-uptake", "setting": "[^3 H]-DA re-uptake; concentration of test substance -log (mol) 7, 0.1 µM", "value": 2, "unit": "%"},
      {"measurement": "amount of DA re-uptake", "setting": "[^3 H]-DA re-uptake; concentration of test substance -log (mol) 8, 0.01 µM", "value": 38, "unit": "%"},
      {"measurement": "amount of DA re-uptake", "setting": "[^3 H]-DA re-uptake; concentration of test substance -log (mol) 9, 0.001 µM", "value": 80, "unit": "%"},
      {"measurement": "amount of DA re-uptake", "setting": "[^3 H]-DA re-uptake; concentration of test substance -log (mol) 10, 0.0001 µM", "value": 92, "unit": "%"},
      {"measurement": "inhibition of DA re-uptake (in words)", "setting": "[^3 H]-DA re-uptake; conclusion from IC50 and Table 3", "value": "potent activities of inhibiting DA re-uptake"},
      {"measurement": "Number of times of rising", "setting": "Wistar rats (male); 0.01 mmol/kg", "value": 69, "unit": "times"},
      {"measurement": "Number of times of traversing", "setting": "Wistar rats (male); 0.01 mmol/kg", "value": 253, "unit": "times"},
      {"measurement": "Number of times of rising", "setting": "Wistar rats (male); 0.03 mmol/kg", "value": 156, "unit": "times"},
      {"measurement": "Number of times of traversing", "setting": "Wistar rats (male); 0.03 mmol/kg", "value": 267, "unit": "times"},
      {"measurement": "Number of times of rising", "setting": "Wistar rats (male); 0.1 mmol/kg", "value": 121, "unit": "times"},
      {"measurement": "Number of times of traversing", "setting": "Wistar rats (male); 0.1 mmol/kg", "value": 287, "unit": "times"},
      {"measurement": "quantity of spontaneous movement (in words)", "setting": "Wistar rats (male); 0.01 to 0.1 mmol/kg, hydrochloride", "value": "enhances the quantity of the spontaneous movement to a marked extent"}
    ]}
  ]
}
